Data on 1 compound can be found in patent publication US7667100B2, “Nucleic acid compositions conferring herbicide resistance” (Dow AgroSciences LLC, priority 2002, dated 2010).

In the experiment the test system is Arabidopsis thaliana. In words: Auxin tolerance testing of stably transformed Arabidopsis thaliana. The class given is in vivo. The conditions noted are these: 50 μL of 3.75 g ae/ha solution on one lower leaf, within five days. An excerpt: One of the auxin tolerance sequences, 129965 (SEQ ID NO:10), was selected for stable expression analysis using a model plant system, Arabidopsis thaliana. This required cloning of the GENEWARE® vector insert into a binary vector suitable for Agrobacterium transformation. Agrobacteriuni encoding the gene of interest as well as a selectable marker was then utilized to transform Arabidopsis plants. Transgenic plants derived from the first generation of seed (T1) were selected based on glufosinate resistance and subsequently tested for tolerance to auxin 4-amino-3,6-dichloropyridine-2-carboxylic acid.
Plant growth and maintenance. Freshly harvested Arabidopsis thaliana (Columbia ecotype) seed was allowed to dry at least 7 days at room temperature in the presence of desiccant. Dried seed was sterilized with a 0.1% Triton X-100 (Sigma Chemical Co., St. Louis, Mo.) and 70% ethanol solution (3 min) using 95% ethanol as a wash (30 sec). After sterilization, seed was suspended in a 0.1% agarose (Sigma Chemical Co., St. Louis, Mo.) solution. The suspended seed was stored at 4° C. for 2 days to complete dormancy requirements and ensure synchronous seed germination (stratification).
Sunshine Mix LP5 (Sun Gro Horticulture Inc., Bellevue, Wash.) was covered with fine vermiculite and subirrigated with Hoagland's solution (see Example 9) until wet. The soil mix was allowed to drain for 24 hours. […]

As to `Nc1cc(Cl)nc(C(=O)O)c1Cl` [4-amino-3,6-dichloropyridine-2-carboxylic acid, reference compound], the “auxin symptoms in wild type plants” value is “systemic symptoms of epinasty and leaf cupping, as well as meristem swelling and significant chlorosis”.
